Source: patent US20230346820A1, “METHODS AND COMPOSITIONS FOR THE TREATMENT OF SARS-COV-2” (priority 2020, published 2023)
Where a name gives a salt, the structure may show the parent alone. Read-outs that look alike come from different tables or passages of the source.

Tests used:
SARS-CoV-2 [1] = tested on: SARS-CoV-2
HeLa-ACE2 cells [2] = tested on: HeLa-ACE2 cells
SARS-CoV-2 [3] = conditions: for EC50: read-out: Calu-3 CoV-2 EC50
SARS-CoV-2 [4] = assay: Checkerboard synergy study with remdesivir (ZIP model, synergyfinder); assay type: cell-based
in vitro = conditions: human
[5] = human, oral; cited from earlier work
SARS-CoV-2 [6] = assay: microbe, parasite or virus in culture
HeLa-ACE2 cells [7] = assay: cells; assay type: cell-based, human
[8] = read-out: HeLa-ACE2 CoV-2 EC50, Table 4, aggregated data, Geomean, n = 3
[9] = read-out: HeLa-ACE2 Uninfected Tox CC50, Table 4, aggregated data, Geomean, n = 3
[10] = Table 4, aggregated data, Geomean, n = 3, 48 h
[11] = read-out: Calu-3 Uninfected Tox CC50, Table 4, aggregated data, Geomean, n = 3
[12] = Table 1, ZIP model, δ>10 synergy, δ<−10 antagonism, between additive
[13] = CC50 [μM] (Geomeans, n ≥ 2 except where indicated: *n = 1)
[14] = Severe acute respiratory syndrome coronavirus 2, HeLa-ACE2, 24 h, read-out: CoV-2 EC50 [μM] (Geomeans, n ≥ 2)
[15] = Severe acute respiratory syndrome coronavirus 2, HeLa-ACE2, read-out: SARS CoV-2 EC50 (μM)
[16] = Homo sapiens, HeLa-ACE2, read-out: HeLa-ACE-2 EC50 [μM] (Geomeans, n ≥ 2)

Experimental for Calu-3 cells: To assess cell viability, 2 μL of 50% Cell-Titer Glo (Promega No G7573) diluted in water was added to the cells and luminescence measured on an EnVision Plate Reader (Perkin Elmer).
Data analysis. […] Primary in vitro screen and the host cell cytotoxicity counter screen data were uploaded to Genedata Screener, Version 16.0.3-Standard. […] For the uninfected host cell cytotoxicity counter screens, 40 μM puromycin (Sigma) was used as the positive (inhibitory) control in HeLa-ACE2, HepG2 and HEK293T cells, and 30 μM puromycin (Sigma) was used as the positive (inhibitory) control for Calu-3 cells. For dose response experiments compounds were tested in technical triplicates on different assay plates and dose curves were fitted with the four parameter Hill Equation. Technical replicate data were analyzed using median condensing. Geometric means and geometric standard deviations are reported for compound activities (EC50s and CC50s) obtained in multiple independent biological experiments. […] Geometric means were calculated by computing the logarithm (base 10) of all values, calculating the mean of these logarithms, and taking the antilog of that mean. Geometric standard deviations were computed by taking the standard deviation of the log-transformed individual values and taking the antilog of that standard deviation. The geometric standard deviation is a unitless ratio and reported as ×÷ instead of +/−.

Compound | EC50 (SARS-CoV-2 [1]; [8]) [µM] | CC50 (HeLa-ACE2 cells [2]; [9]) [µM] | Calu3 SI CC50/CoV-2 EC50 (SARS-CoV-2 [3]; Table 4) | EC50 (SARS-CoV-2 [3]; [10]) [µM] | CC50 (Calu-3 cells; [11]) [µM] | Synergy score with remdesivir (δ) (SARS-CoV-2 [4]; [12]) | Synergy score with remdesivir (δ) (SARS-CoV-2 [4]; Table 3) | HeLa-ACE2 CC50/CoV-2 EC50 (SARS-CoV-2 [1]) | CC50 (in vitro; [13]) [µM] | CC50 (in vitro; Uninfected HeLa-ACE2 CC50 (μM)) [µM] | Cmax [5] [µM] | t1/2 [5] | EC50 (SARS-CoV-2 [6]; [14]) [µM] | EC50 (SARS-CoV-2 [6]; [15]) [µM] | other results
CSc1ncnc2c1ncn2[C@@H]1O[C@H](CO)[C@@H](O)[C@H]1O [6-Methyl mercaptopurineriboside] | 3.6 | 15.4 | 5.80 | 0.207 | 1.2 |  |  |  |  |  |  |  |  |  | HeLa-ACE2 SI CC50/CoV-2 EC50 (SARS-CoV-2 [1]; Table 4): 4.27
CCOc1ccc(Cc2nc3cc(N(C)S(=O)(=O)c4cccs4)ccc3n2CC2CCCCC2)nc1 [AZ-11713908] | > 9.59 | 33 | >8 | 3.54 | > 29.9 |  |  |  |  |  |  |  |  |  | 
COC(=O)C1=C(C)NC(C)=C(C(=O)OCCN2CCN(C(c3ccccc3)c3ccccc3)CC2)C1c1cccc([N+](=O)[O-])c1 (stereo not drawn) [manidipine] |  |  |  |  |  | −4.727 | −4.727 | >2.48 | > 17.1 | > 17.1 | ~0.01 | ~3 h (human, oral)(23) | > 6.89 | > 6.89 | 
Cloturin | 3.88 | 31.5 | 6.62 | 0.304 | 2.01 |  |  |  |  |  |  |  |  |  | HeLa-ACE2 SI CC50/CoV-2 EC50 (SARS-CoV-2 [1]; Table 4): 8.13
Nc1nccc2c1ncn2C1C=C(CO)C(O)C1O (stereo not drawn) [DEAZANEPLANOCINA] | > 9.59 | 7.95 | 182.24 | 0.057 | 10.3 |  |  |  |  |  |  |  |  |  | 
C=CC(=O)Nc1cc(Nc2nccc(-c3cn(C)c4ccccc34)n2)c(OC)cc1N(C)CCN(C)C [Osimertinib] |  |  |  |  |  | −0.722 | −0.722 | >18.79 | > 18.1 | > 18.1 | ~1.5 | ~42 h (human, oral)(33, 34) | 0.962 | 0.962 | 
Cc1c(O)cccc1C(=O)N[C@@H](CSc1ccccc1)[C@H](O)CN1C[C@H]2CCCC[C@H]2C[C@H]1C(=O)NC(C)(C)C [nelfinavir mesylate] |  |  |  |  |  | −1.233 |  | >2.08 | > 18 | > 18 | ~17 | ~4 h (human oral)(20) | > 8.64 |  | 
CN(C)C(C(=O)Nc1ccc2c(=O)[nH]ccc2c1)c1ccsc1 (stereo not drawn) [Verosudil] | > 9.59 | > 39.8 | 5.39 | 3.51 | 18.9 |  |  |  |  |  |  |  |  |  | 
Nc1cc(OCC2CC2)c(C(=O)NC2CN3CCC2CC3)cc1Cl (stereo not drawn) [Pancopride] |  |  |  |  |  | 0.648 | 0.65 | 4.32 | > 37.3 | > 37.3 | ~0.3 | ~16 h (human, oral)(26) | > 8.64 | > 8.64 | EC50 (HeLa-ACE2 cells [7]; [16]): > 9.59 µM
NC1(c2ccc(-c3nc4ccn5c(=O)[nH]nc5c4cc3-c3ccccc3)cc2)CCC1 [MK-2206] |  |  |  |  |  | 2.087 | 2.087 | >20.63 |  |  | ~0.571 | ~75 h (human, oral)(29) |  |  | EC50 (HeLa-ACE2 cells [7]; read-out: HeLa-ACE-2 EC50 [μM] (Geomeans, n ≥ 2)): > 9.59 µM; EC50 (SARS-CoV-2 [1]; read-out: CoV-2 EC50 [μM] (Geomeans, n ≥ 2)): 1.1 µM; EC50 (SARS-CoV-2 [1]; read-out: SARS CoV-2 EC50): 1.1 µM; CC50 (HeLa-ACE2 cells [2]): > 22.8 µM
CC(CN(C)C)CN1c2ccccc2CCc2ccccc21 (stereo not drawn) [Trimipramine] |  |  |  |  |  |  |  | 10.11 |  |  |  |  | 2.11 |  | CC50 (HeLa-ACE2 cells [2]; human): 21.3 µM
Cn1cnc([N+](=O)[O-])c1Sc1ncnc2[nH]cnc12 [Azathioprin] |  |  |  |  |  |  |  |  |  |  |  |  |  |  | HeLa-ACE2 SI CC50/CoV-2 EC50 (SARS-CoV-2 [1]): 7.67; EC50 (SARS-CoV-2 [1]; read-out: HeLa-ACE2 CoV-2 EC50): 5.08 µM; CC50 (HeLa-ACE2 cells [2]): 39 µM; Calu3 SI CC50/CoV-2 EC50 (SARS-CoV-2 [3]): 7.35; EC50 (SARS-CoV-2 [3]): 0.482 µM; CC50 (Calu-3 cells): 3.55 µM
COc1ccc2c(c1)CN(C)CC2c1ccc(Cl)c(Cl)c1 (stereo not drawn) [diclofensine] |  |  |  |  |  |  |  | <1.28 | 10.1 | > 40 | ~0.03 | ~15 h (human, oral)(25) | > 7.89 | 6.06 | EC50 (HeLa-ACE2 cells [7]; [16]): > 9.59 µM
CC(C)Oc1ccc(-c2nc(-c3cccc4c3CC[C@@H]4NCCO)no2)cc1C#N [Ozanimod] |  |  |  |  |  |  | −4.62 | >5.60 | > 14.7 | > 14.7 | ~1.2 | ~21 h (human, oral)(24) | 2.63 | 2.63 | 
CCc1ccc2c(c1)N(CC(C)CN(C)C)c1ccccc1S2 (stereo not drawn) [Ethylisobutrazine Hydrochloride] |  |  |  |  |  |  |  | 10.48 |  |  |  |  | 2 |  | CC50 (HeLa-ACE2 cells [2]; human): 20.9 µM
